Results on 18 compounds are retold here after patent publication US20260132123A1, “ABAD INHIBITOR COMPOUNDS” (UNIVERSITY COURT OF THE UNIVERSITY OF ST ANDREWS, priority 2021, published 2026).

In one data set the target is T1, 17β-HSD10 (Homo sapiens, UniProt Q99714).
T1 construct: Histev (histidine tag with TEV site) (N, cleaved yes); made in house; host or cells: E. coli BL21-CodonPlus
T1 sequence (Q99714 1-261): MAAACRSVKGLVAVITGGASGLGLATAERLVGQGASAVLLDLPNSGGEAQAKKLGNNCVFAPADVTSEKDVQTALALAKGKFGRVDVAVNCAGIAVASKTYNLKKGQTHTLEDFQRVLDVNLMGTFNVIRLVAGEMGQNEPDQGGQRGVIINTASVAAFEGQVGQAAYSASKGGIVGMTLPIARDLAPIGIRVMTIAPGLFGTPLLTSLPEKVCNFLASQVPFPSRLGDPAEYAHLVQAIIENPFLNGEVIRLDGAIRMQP
The data set is described as follows: 17β-HSD10 (ABAD) enzyme inhibition assay, NADH oxidation read at 340 nm (primary screen and dose response). Type of data set: biochemical. As to conditions: for EC50 / Max. Effect (%) / Hill Slope / Max. Fit / Min. Fit: recombinant 17βHSD10 enzyme assay; for Hill Slope / Max. Fit / Min. Fit: curve fit. The essentials:
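Tag-cleaved recombinant human 17β-HSD10 (2.5 nM) preincubated 15 min with compound in Tris pH 7.4, NaCl, DTT, Tween, BSA (catalase in some runs), then 100 μM acetoacetyl-CoA and NADH added. NADH oxidation by A340 fall: 35 min endpoint for screening at 10 μM; continuous 45 min for dose response.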

The test system of data set [1] is mtsABAD HEK293 cells. The data set is described as follows: Lactate dehydrogenase (LDH) cytotoxicity assay. Type of data set: cell-based, human. Conditions: 50 μM compound. Here is the method:
Cell cytotoxicity was assessed via the measurement of lactate dehydrogenase leakage into the culture medium using a commercially available kit from Pierce (Thermo Scientific cat no. 88953). This was carried out in accordance with the kit guidelines, with the activity of Lactate Dehydrogenase (LDH) being calculated from the change in absorbance at […] as NADH is reduced. HEK293 cells overexpressing mts17β-HSD10 were cultured in phenol-red free media (10% fetal bovine serum (FBS), 1 mM sodium pyruvate, 100 units penicillin, 0.1 mg/mL streptomycin and 2 mM L-glutamine) and seeded at a density of 10,000 cells per well (100 μL, 96 well plates). […] Treated cells were incubated at 37° C. and CO2 (5%) for 24 hours before the LDH assay was performed as per the manufacturer's instructions. Spontaneous control (water) and maximum control (lysis buffer) used in accordance with the kit guide. Absorbance was measured at 490 nm and 680 nm using a SpectraMaxM2e spectrophotometer. The measured LDH activity was used to calculate % cytotoxicity using the following equation: […]

Data set [2] relates to mtsABAD HEK293 cells. The data set can be described thus: Alamar Blue cell viability assay. As to conditions: 50 μM compound. Type of data set: cell-based, human. Here is the method: Cell viability was assessed via fluorescence change using the commercially available Alamar Blue from ThermoFisher. HEK293 cells overexpressing mts17β-HSD10 were cultured in phenol-red free media (10% FBS, 1 mM sodium pyruvate, 100 units penicillin, 0.1 mg/mL streptomycin and 2 mM L-glutamine) and seeded at a density of 10,000 cells per well (100 μL, 96 well plates). […] Treated cells were then incubated at 37° C. and CO2 (5%) for 24 hours before the assay was performed as per the manufacturer's instructions. Fluorescence was measured at 530 nm excitation and 590 nm emission using a SpectraMaxM2e spectrophotometer.
A general note: The colour change of resazurin is a common sign of viable cells or microbes.

`Cc1n[nH]c(Cc2ccccc2)c1-c1ccccc1O` [ESC1002170, 2-(5-benzyl-3-methyl-1H-pyrazol-4-yl) phenol]: on 17β-HSD10, the concentration for a half-maximal effect (EC50) is 501 nM, the “Max. Effect (%)” value is 99%, the “Hill Slope” value is on record as 1.1 and the “Max. Fit” value worked out at 98. The “Min. Fit” value at 17β-HSD10 came out at 0. The “LDH % Toxicity (50 μM Dose)” value in the data set on mtsABAD HEK293 cells [1] was found to be 5.192%. Besides, in the data set with mtsABAD HEK293 cells [2], the “Alamar Blue % Viability (50 μM Dose)” value stood at 79.141%.
As to `CC(C)CN(C(=O)C(C)C)c1cccc(N(C)Cc2cnc[nH]2)c1` [ESC1002165, N-[3-[1H-imidazol-5-ylmethyl(methyl)amino]phenyl]-N-isobutyl-2-methyl-propanamide], on 17β-HSD10, the EC50 was 1660 nM, the “Max. Effect (%)” value came out at 94%, the “Hill Slope” value turned out to be 1 and the “Max. Fit” value was found to be 100. The “Min. Fit” value on 17β-HSD10 was determined as 0. In the data set with mtsABAD HEK293 cells [1], the “LDH % Toxicity (50 μM Dose)” value amounted to 4.074%. Further, the “Alamar Blue % Viability (50 μM Dose)” value in the data set on mtsABAD HEK293 cells [2] was 88.291%.
With `Cc1ccsc1C(=O)N1CCC[C@H]1c1ccccc1-c1ccc(S(C)(=O)=O)cc1` [ESC1002319], on 17β-HSD10, the EC50 was 5890 nM, the “Max. Effect (%)” value is 79%, the “Hill Slope” value was 1 and the “Max. Fit” value stood at 101. Further, the “Min. Fit” value on 17β-HSD10 is −2. Also, the “LDH % Toxicity (50 μM Dose)” value in the data set on mtsABAD HEK293 cells [1] turned out to be 5.17%. Also, the “Alamar Blue % Viability (50 μM Dose)” value in the data set with mtsABAD HEK293 cells [2] came out at 82.10%.
On to `CC(C)CN(C(=O)c1ccccc1F)c1cccc(N(C)Cc2cn(C)cn2)c1` [ESC1002200], for which, on 17β-HSD10, the EC50 was 9120 nM, the “Max. Effect (%)” value is listed as 67%, the “Hill Slope” value is 1 and the “Max. Fit” value was determined as 96. Further, the “Min. Fit” value at 17β-HSD10 came out at 0. For the same compound, the “LDH % Toxicity (50 μM Dose)” value in the data set with mtsABAD HEK293 cells [1] worked out at 5.136%. In the data set on mtsABAD HEK293 cells [2], the “Alamar Blue % Viability (50 μM Dose)” value was determined as 79.220%.
Consider `COc1cccc(-c2ccccc2[C@@H]2CCCN2C(=O)c2sccc2C)c1` [ESC1002338], for which, on 17β-HSD10 (17β-HSD10 inhibition, read-out: IC50), the concentration for half-maximal inhibition (IC50) is 191 nM. Besides, on 17β-HSD10, the concentration giving a half-maximal response (EC50) is 191 nM, the “Max. Effect (%)” value was determined as 101%, the “Hill Slope” value was 1.1 and the “Max. Fit” value stood at 100. Further, the “Min. Fit” value at 17β-HSD10 is 0. The “LDH % Toxicity (50 μM Dose)” value with mtsABAD HEK293 cells [1] worked out at 4.64%. For the same compound, the “Alamar Blue % Viability (50 μM Dose)” value in the data set on mtsABAD HEK293 cells [2] is listed as 82.98%.
Regarding `CCCC(=O)N(CC(C)C)c1cccc(N(C)Cc2cnc[nH]2)c1` [ESC1002235, N-[3-[1H-imidazol-5-ylmethyl(methyl)amino]phenyl]-N-isobutyl-butanamide], on 17β-HSD10, the EC50 was 2950 nM, the “Max. Effect (%)” value amounted to 85%, the “Hill Slope” value is given as 1.1 and the “Max. Fit” value is recorded as 93. For the same compound, the “Min. Fit” value at 17β-HSD10 is on record as −3. Besides, the “LDH % Toxicity (50 μM Dose)” value in the data set on mtsABAD HEK293 cells [1] is given as 5.54%. Also, the “Alamar Blue % Viability (50 μM Dose)” value in the data set on mtsABAD HEK293 cells [2] is listed as 84.09%.
With `CC(C)CN(C(=O)c1ccccc1F)c1cccc(N(C)Cc2cn3ccccc3n2)c1` [ESC1002214], on 17β-HSD10, the EC50 was > 20000 nM and the “Max. Effect (%)” value is reported as 22%. The “LDH % Toxicity (50 μM Dose)” value in the data set on mtsABAD HEK293 cells [1] is 5.902%. In addition, the “Alamar Blue % Viability (50 μM Dose)” value in the data set on mtsABAD HEK293 cells [2] is recorded as 82.439%.
Taken in the same sequence, the figures for `Cc1ccsc1C(=O)N1CCC[C@H]1c1ccccc1-c1cccc(S(C)(=O)=O)c1` [ESC1002322] were > 20000 nM, 41%, 6.93% and 89.24%.
Taken in the same sequence, the figures for `CCc1ccc(CN(C)c2cccc(N(CC(C)C)C(=O)c3ccccc3F)c2)cn1` [ESC1002213] were > 20000 nM, 15%, 8.010% and 81.860%.
As to `CCN(C(=O)c1ccccc1F)c1cccc(N(C)Cc2cnc[nH]2)c1` [ESC1002234, N-ethyl-2-fluoro-N-[3-[1H-imidazol-5-ylmethyl(methyl)amino]phenyl]benzamide], at 17β-HSD10, the EC50 is 1480 nM, the “Max. Effect (%)” value is listed as 94%, the “Hill Slope” value was 0.96 and the “Max. Fit” value worked out at 101. Also, the “Min. Fit” value at 17β-HSD10 is reported as −3. Also, in the data set on mtsABAD HEK293 cells [1], the “LDH % Toxicity (50 μM Dose)” value turned out to be 4.81%. For the same compound, the “Alamar Blue % Viability (50 μM Dose)” value in the data set on mtsABAD HEK293 cells [2] stood at 86.98%.
For the compound `Cc1ccsc1C(=O)N1CCC[C@H]1c1ccccc1-c1ccc(N2CCOCC2)cc1` [ESC1002318], at 17β-HSD10, the EC50 is 1910 nM, the “Max. Effect (%)” value is on record as 91%, the “Hill Slope” value worked out at 1.1 and the “Max. Fit” value was determined as 98. Further, at 17β-HSD10, the “Min. Fit” value is recorded as −1. Moreover, the “LDH % Toxicity (50 μM Dose)” value with mtsABAD HEK293 cells [1] is 2.55%. In the data set on mtsABAD HEK293 cells [2], the “Alamar Blue % Viability (50 μM Dose)” value was 85.76%.
For the compound `Cc1ccsc1C(=O)N1CCC[C@H]1c1ccccc1-c1cccc(Cl)c1` [ESC1002321], at 17β-HSD10, the EC50 was 263 nM, the “Max. Effect (%)” value is listed as 105%, the “Hill Slope” value is listed as 0.92 and the “Max. Fit” value is recorded as 102. For the same compound, at 17β-HSD10, the “Min. Fit” value is 4. The “LDH % Toxicity (50 μM Dose)” value in the data set on mtsABAD HEK293 cells [1] was 5.98%. Also, in the data set with mtsABAD HEK293 cells [2], the “Alamar Blue % Viability (50 μM Dose)” value is given as 84.52%.
`CC(C)CN(C(=O)c1cccc2ccccc12)c1cccc(N(C)Cc2cnc[nH]2)c1` [ESC1002172, N-[3-[1H-imidazol-5-ylmethyl(methyl)amino]phenyl]-N-isobutyl-naphthalene-1-carboxamide]: on 17β-HSD10, the EC50 is 2820 nM, the “Max. Effect (%)” value was 87%, the “Hill Slope” value was 1.1 and the “Max. Fit” value came out at 96. Besides, the “Min. Fit” value at 17β-HSD10 is reported as 0. Moreover, in the data set with mtsABAD HEK293 cells [1], the “LDH % Toxicity (50 μM Dose)” value was 5.472%. The “Alamar Blue % Viability (50 μM Dose)” value in the data set with mtsABAD HEK293 cells [2] was 85.337%.
For `CC(C)CN(C(=O)c1ccccc1F)c1ccc2c(c1)N(Cc1cnc[nH]1)CCC2` [ESC1002236, 2-fluoro-N-[1-(1H-imidazol-5-ylmethyl)-3,4-dihydro-2H-quinolin-7-yl]-N-isobutyl-benzamide], on 17β-HSD10, the EC50 is > 20000 nM and the “Max. Effect (%)” value was 30%. Further, the “LDH % Toxicity (50 μM Dose)” value in the data set with mtsABAD HEK293 cells [1] is listed as 3.94%. The “Alamar Blue % Viability (50 μM Dose)” value in the data set with mtsABAD HEK293 cells [2] amounted to 82.69%.
For `CC(C)CN(C(=O)c1ccccc1F)c1cccc(N(C)Cc2cncn2C)c1` [ESC1002199], in that order: > 20000 nM, 13%, 5.028% and 89.524%.
On to `COc1cccc(-c2ccccc2[C@@H]2CCCN2C(=O)c2sccc2C)c1OC` [ESC1002326], for which, on 17β-HSD10, the EC50 is 708 nM, the “Max. Effect (%)” value came out at 97%, the “Hill Slope” value is recorded as 1.1 and the “Max. Fit” value is reported as 99. Besides, the “Min. Fit” value on 17β-HSD10 is recorded as 4. The “LDH % Toxicity (50 μM Dose)” value in the data set with mtsABAD HEK293 cells [1] was determined as 5.05%. In addition, the “Alamar Blue % Viability (50 μM Dose)” value with mtsABAD HEK293 cells [2] is given as 88.92%.
As for `CC(C)CN(C(=O)c1ccccc1F)c1cccc(N(C)Cc2cncs2)c1` [ESC1002208], at 17β-HSD10, the 50% effective concentration (EC50) is > 20000 nM and the “Max. Effect (%)” value amounted to 50%. The “LDH % Toxicity (50 μM Dose)” value in the data set on mtsABAD HEK293 cells [1] amounted to 20.084%. Further, the “Alamar Blue % Viability (50 μM Dose)” value in the data set with mtsABAD HEK293 cells [2] was 65.577%.
Take `Cc1ccsc1C(=O)N1CCC[C@H]1c1ccccc1-c1ccc(C#N)cc1` [ESC1002316]: on 17β-HSD10, the concentration giving a half-maximal response (EC50) was 275 nM, the “Max. Effect (%)” value is 101%, the “Hill Slope” value is on record as 0.93 and the “Max. Fit” value is listed as 100. The “Min. Fit” value on 17β-HSD10 stood at 0. Further, the “LDH % Toxicity (50 μM Dose)” value with mtsABAD HEK293 cells [1] is 3.69%. In the data set with mtsABAD HEK293 cells [2], the “Alamar Blue % Viability (50 μM Dose)” value is listed as 80.39%.

What is called EC50 is the concentration giving half of the maximal effect. One may read the IC50 as the concentration that gives 50% inhibition.
